Experiments:
STING Q = assay: 293T STING digitonin reporter assay (Q haplotype); type: cell-based, human; details: digitonin permeabilised 293T reporter cells
Description: Digitonin Assay with 293T Reporter Cells. The generation of 293T reporter cells stably expressing different STING protein haplotypes (WT, HAQ, REF, AQ, or Q) was described previously (Novotna et al, J. Med. Chem. 2019,62, 10676). The cells were seeded at a density of 250 000 cells per cm^2 into 96 well white poly(D-lysine) coated plates in 100 µL of DMEM with high glucose supplemented with 10% heat inactivated FBS. Next day, the medium was removed, and compounds were added in 3-fold serial dilutions in a digitonin buffer containing 50 mM HEPES (pH 7.0), 100 mM KCl, 3 mM MgClz, 0.1 mM DTT, 85 mM sucrose, 0.2% (w/w) BSA, 1 mM ATP, 0.1 mM GTP, and 10 µg/mL digitonin A. After 30 min incubation at 37 °C with 5% CO2, the digitonin buffer was removed, cells were washed once with 100 µL of the cultivation medium, and 100 µL of fresh medium was added to each well. The plates with cells were further incubated for 5 h at 37 °C with 5% CO2. Thereafter, 50 µL of the medium was removed, and 30 µL of Bright-Glo Luciferase Assay System reagent was added to each well. […] Nonlinear regression curve fit with standard slope was used for EC50 value calculations. The EC50 value represents CDN concentration that gives half-maximal response of firefly luciferase in the 293T reporter assay.

[1] = Pharmacokinetics of Compound 2.2 applied i.v.; type: in vivo; details: mice (Balb/c), 5mg/kg i.v.
Description: Pharmacokinetics of Compound 2.2 applied I.V. at dose 5mg/kg was determined in Balb/c mice. Plasma samples were precipitated with methanol (final concetration 70%) spiked with internal standard, the precipited proteins were removed by centrigugation and supernatant was evaporated. The analytes were dissolved in 100 µL of 10 mM CH3COONH4 by vortexing for 5 min. Compound 22 along with the corresponding internal standard were separated and detected using a liquid chromatograph Exion LC AD with tandem mass spectrometer QTrap 6500+ (both Sciex) equipped with a separation column Acquity BEH C18 1.7 µm, 50 × 2.1 mm, as well as a guard column 1.7 µm C18, 5 × 2.1 mm (both Waters). The mobile phase (A) used for separation consisted of 10 mM CH3COONH4 in deionized water, while mobile phase (B) was composed of 10 mM CH3COONH4 in methanol. […] Analytes were monitored through their specific multiple reaction monitoring (MRM) transitions by utilizing electrospray ionization (ESI) in a positive mode with the following parameters: 50 msec dwell time, entrance potential 10 V, ion source temperature 350°C, ion spray voltage 5.5 kV, curtain gas (40 psi), GS1 gas (50 psi), and GS2 gas (50 psi). Quantification of Compound 2.2 was conducted using a weighted calibration curve (1/x^2) with a structurally similar internal standard.

[2] = test system: 293T WT STING reporter cells expressing TROP2; assay: 293T WT STING reporter cells transiently expressing TROP2, luciferase; type: cell-based; details: free Warhead CDN, no antibody; TROP2+ 293T reporter cells
Description: HCC1954 and 293T reporter cells were cultured as previously described. HCC1954 cells, which naturally express both Her2 and TROP2, were seeded into collagen-coated 96-well plates at a density of 0.5×10^6 cells/ml (100 µl/well) in RPMI medium supplemented with 10% FBS and Penicillin/Streptomycin. The following day, the medium was completely removed, and serial dilutions of mAb2-CDN and mAb5-CDN conjugates in medium were added to the wells. Levels of the STING-dependent cytokine IP10 (CXCL10) induction were determined in the medium using ProcartaPlex Immunoassays after 24 hours of incubation following the manufacturer's protocol and measured on a MagPix instrument. […] Nonlinear regression curve fitting was applied for EC50 value calculations. The EC50 value represents the concentration of the payload CDN 2.2 conjugated to anti-Her2 mAb2 or anti-TROP2 mAb5 that results in half-maximal levels of IP-10. […] A 50 µL mixture was transferred to white 96-well plates, and luminescence was measured using a TECAN reader.
EC50 values were calculated from an 8-point dose-response curve using GraphPad Prism (La Jolla, USA) with nonlinear regression curve fitting. The EC50 represents the concentration of the payload CDN 2.2 conjugated to anti-Her2 mAb2 or anti-TROP2 mAb5 that results in half-maximal levels of luminescence.

With `Nc1ncnc2c1ncn2[C@@H]1O[C@@H]2OCP(=O)(S)O[C@@H]3[C@H](F)[C@@H](COP(=O)(S)OC[C@H]2[C@H]1F)O[C@H]3n1cnc2c(=O)[nH]cnc21` (single isomer, unassigned) [Compound 2.2] the EC50 (STING Q) was 80 nM, the half-life [1] was “less than 10 minutes” and the EC50 [2] was 700 nM.

— patent EP4610267A1, “CYCLIC DINUCLEOTIDES AND CONJUGATES THEREOF WITH ANTIBODIES” (priority 2024, dated 2025)
